# Test results: US20170292066A1, “Synthetic Acid Compositions Alternatives to Conventional Acids in the Oil and Gas Industry” (Fluid Energy Group Ltd., priority 2014, published 2017)
# Assay: Biodegradability
structure (smiles),measurement,value
"Cl.NC(N)=O [urea hydrochloride, Urea Hydrochloride]",Biodegradability,maintain the same biodegradability function
